Results as given in patent US20150269307A1, “TARGET INHIBITION MAP SYSTEM FOR COMBINATION THERAPY DESIGN AND METHODS OF USING SAME” (Texas Tech University System, priority 2014, published 2015).

Columns and labels:
DIPG neurospheres [1] = assay: Cellular viability assay (CellTiter-Glo Luminescent Cell Viability Assay); assay type: cell-based, mouse; conditions: 48 hours
Method: (§1) A bromodeoxyuridine (BrdU) based cell proliferation ELISA assay kit (Roche) was used for proliferation and processed according to the manufacturer's protocol. […] Viability was measured with CellTiter-Glo Luminescent Cell Viability Assay (# G7572, Promega) per manufacturer's protocol, luminescence values were obtained using Turner Biosystems Modulus Microplate luminometer (model 9300-062). All values are given as mean+/−SD of at least 3 independent experiments.

DIPG neurospheres [2] = assay: BrdU based cell proliferation ELISA assay; parameters: species or system mouse
Method: as §1

IGF-1R = target: T1, IGF-1R (Mus musculus, UniProt Q60751); assay: Western blot analysis of phospho-IGF-1R after IGF-1 stimulation; assay type: cell-based; conditions: 4 hours of drug exposure at 1 μM and higher
T1 construct: endogenous in cells; host or cells: murine DIPG neurospheres (Ntv-a p53 deficient, PDGF-B driven)
T1 sequence (Q60751 31-1373): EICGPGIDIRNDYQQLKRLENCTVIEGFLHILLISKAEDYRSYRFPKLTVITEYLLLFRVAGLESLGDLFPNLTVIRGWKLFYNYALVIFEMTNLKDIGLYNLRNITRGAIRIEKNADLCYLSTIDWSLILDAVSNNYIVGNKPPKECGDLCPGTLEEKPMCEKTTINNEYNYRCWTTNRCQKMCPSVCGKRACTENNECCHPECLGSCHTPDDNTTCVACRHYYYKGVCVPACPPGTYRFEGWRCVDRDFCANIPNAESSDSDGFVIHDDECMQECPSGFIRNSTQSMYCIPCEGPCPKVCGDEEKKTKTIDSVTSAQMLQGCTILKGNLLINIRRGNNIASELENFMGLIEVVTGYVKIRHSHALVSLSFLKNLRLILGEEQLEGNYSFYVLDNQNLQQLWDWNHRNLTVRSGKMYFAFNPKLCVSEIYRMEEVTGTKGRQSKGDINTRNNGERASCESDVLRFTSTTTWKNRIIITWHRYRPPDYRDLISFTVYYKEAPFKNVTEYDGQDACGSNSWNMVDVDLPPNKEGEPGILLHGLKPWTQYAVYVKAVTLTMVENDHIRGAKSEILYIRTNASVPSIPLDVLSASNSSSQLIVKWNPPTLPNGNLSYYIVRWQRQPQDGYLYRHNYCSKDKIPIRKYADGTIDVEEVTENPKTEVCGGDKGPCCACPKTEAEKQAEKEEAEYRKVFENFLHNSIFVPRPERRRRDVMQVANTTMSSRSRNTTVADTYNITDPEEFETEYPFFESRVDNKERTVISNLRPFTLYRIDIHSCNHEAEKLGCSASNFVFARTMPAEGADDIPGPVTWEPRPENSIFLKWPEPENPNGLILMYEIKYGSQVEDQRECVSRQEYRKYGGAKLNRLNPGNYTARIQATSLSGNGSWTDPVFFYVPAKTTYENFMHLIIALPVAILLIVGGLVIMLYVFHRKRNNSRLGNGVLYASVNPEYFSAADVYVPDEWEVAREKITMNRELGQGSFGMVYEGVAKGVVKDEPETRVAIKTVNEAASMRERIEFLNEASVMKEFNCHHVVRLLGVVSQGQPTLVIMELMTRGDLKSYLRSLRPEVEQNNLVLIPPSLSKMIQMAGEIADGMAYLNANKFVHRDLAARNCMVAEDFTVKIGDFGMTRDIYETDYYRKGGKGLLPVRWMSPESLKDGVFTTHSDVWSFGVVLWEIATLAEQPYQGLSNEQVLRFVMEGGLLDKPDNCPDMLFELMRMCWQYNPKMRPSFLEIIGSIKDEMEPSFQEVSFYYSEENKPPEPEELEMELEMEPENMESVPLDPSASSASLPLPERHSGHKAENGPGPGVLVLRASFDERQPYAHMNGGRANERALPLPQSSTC
Method: (§2) IGF-1R ligand was added at 10 nmol/L concentration for 15 minutes prior to cell collection. […] Protein concentrations of total cell lysates or total tissue lysates were determined using BCA assay kit (Pierce). Lysates were resolved by SDS-PAGE (Invitrogen) and transferred to nitrocellulose membranes (Bio-Rad Laboratories). […] All antibodies were purchased from Cell Signaling except Actin, which was purchased from Santa Cruz Biotech. Membranes were incubated with the appropriate labeled secondary antibodies, and protein was visualized and quantified using Li-Cor Biosciences Odyssey Infrared Imaging system (Li-Cor Biosciences). Inhibition was calculated by comparing the ratio of phosphorylation signals in untreated versus treated samples after normalization to actin. All values are given as mean+/−SD of at least 3 independent experiments.

AKT = assay: Western blot analysis of phospho-Akt after IGF-1 stimulation; assay type: cell-based, mouse; conditions: 4 hours of drug exposure at 1 μM and higher
Method: as §2

U23674 cells = assay: Four-arm orthotropic allograft study, survival; assay type: in vivo, mouse; conditions: 50 mg/kg OSI-906, 150 mg/kg GDC-0941, oral gavage; compared to vehicle and other arms
Method: This engraftment was performed after damaging the right leg via cardiotoxin as previously described. Treatment commenced two days after engraftment. Dosing schedule was once daily by oral gavage up to day 5, at which time dosing was performed every other day. The endpoint for the study and survival analysis was tumor volume=1.4 cc.

[3] = test system: human patient-derived xenografts; assay: Xenograft-derived chemical screen (Supplemental Table 3); assay type: cell-based
Method: Three chemical screens were applied to the U23674 primary tumor cell culture. […] The target inhibition profile is a quantified description of the inhibitory properties of the compound on the numerous protein targets preset on the PPTI screen.
To screen the chemical agents, cell cultures were plated in 384 well plates at a seeding density of 2000 cells per well over graded concentrations of the numerous compounds. The chemical concentrations were between 10 nM and […] depending on the activity range of the compounds. The cells were incubated in DMEM supplemented with 1% penicillin streptomycin, and 10% fetal bovine serum for 72 hours. Chemical sensitivity was determined by an MTS cell viability assay after the 72 hour incubation period. The sensitivity responses at the different concentrations were used to determine the chemical IC50 using a hill curve fitting algorithm with variable hill slope coefficients.

DIPG neurospheres [4] = assay: cells; conditions: for viability at 10 µM: read-out: cell viability (cytocidal)
Method: Primary cultures of DIPG neurospheres were added to 384 well plates pre-plated with 60 known drugs in an increasing gradient of concentrations. […] To complete this drug screen, primary cultures of nestin […] 53 deficient DIPG neurospheres were added to plates with 60 known drug samples in an increasing gradient of concentrations.

DIPG-bearing mice = assay type: in vivo
Method: All experiments were performed under the Institutional Animal Care and Use Committee and Institutional Review Board of Duke University approved protocol (A239-10-9 and A214-13-8). Mice were maintained under barrier conditions. Nestin tv-a (Ntv-a) p53^fl/fl mice were injected with DF1 cells expressing RCAS-PDGF-B+RCAS-Cre as described above. Three weeks post injection; […]. Mice were treated with 25 mg/kg BID for 6 doses. Loss of 25% of body weight, lethargy, head tilt, or seizure development was used as euthanasia criteria during the treatment window. Four hours after completion of the 6th dose, treated animals were euthanized and tumor tissue was extracted as described above.
Tumor samples embedded in paraffin were then sectioned on a Leica RM2235 microtome at […] thickness. Immunohistochemistry was performed using Discovery XT (Ventana Medical Systems). Sections were immunostained for cleaved caspase 3 (Asp175) (Cell Signaling #9661) and anti-phospho-histone H3 (Ser10) (Millipore 06-570) to allow for evaluation of apoptosis and proliferation, respectively.
Image analysis was completed using MetaMorph 6.1 software (Universal Imaging Corp.; Downingtown, Pa.) to quantify immunostaining on previously imaged sections for each injected animal. These images were thresholded using the HSI color representation method in the Set Color Threshold window. This method has previously been validated by Maximova et. al.. This is a multidimensional evaluation of the hue, saturation, and intensity of each individual pixel making up an image with a range from 0-255. Once color thresholds had been established that were able to define all nucleated cells and only positively labeled cells, each of the ten images per injected animal were quantified for (per 40× high powered field): total nucleated cell area, total nucleated cell count, total positive cell area, total positive cell count. […] The averages for each animal of each of these parameters were then transferred to GraphPad Prism 5 software (GraphPad Software, San Diego, Calif.) where a Mann-Whitney-U t-test was performed on each analyzed parameter to determine statistical significance.

[5] = 48 h, read-out: In Vitro Absolute IC50

Compound	concentration giving significant reduction of viability (DIPG neurospheres [1])	IC50 (DIPG neurospheres [1]; Mus musculus, CellTiter-Glo, read-out: IC50, viability / cytotoxic effects)	concentration giving significant inhibition of proliferation (DIPG neurospheres [2])	IC50 (DIPG neurospheres [2]; Mus musculus, 48 hours, BrdU assay)	reduction in pIGF-1R (IGF-1R)	reduction in pAKT expression (AKT)	survival of mice (endpoint tumor volume 1.4 cc) (U23674 cells)	IC50 Value ([3]; 60 agent PPTI screen)	IC50 (DIPG neurospheres [4]; [5])	viability at 10 µM (DIPG neurospheres [4])	apoptosis, cleaved caspase 3 positive cells (DIPG-bearing mice; 25 mg/kg BID for 6 doses, intraperitoneal, mean, p=0.0435 vs vehicle)	DIPG proliferation, phosphorylated histone-3 (serine 10) positive cells (DIPG-bearing mice; 25 mg/kg BID for 6 doses, intraperitoneal, mean, p=0.8421 vs vehicle)	blood brain barrier crossing (DIPG-bearing mice; mouse, in vivo)	tolerability in mice undergoing treatment (DIPG-bearing mice; mouse, in vivo)	IC50 ([3]; Homo sapiens, read-out: IC50 Value)	IC50 (DIPG neurospheres [4]; Mus musculus, read-out: in vitro IC50 in the high throughput drug screen)
C[C@]1(O)C[C@@H](c2nc(-c3ccc4ccc(-c5ccccc5)nc4c3)c3c(N)nccn32)C1 [OSI-906]	≥ 1 µM	2400 nM	≥ 1 µM	2500 nM	73%	69%	no better than survival of mice only treated with vehicle	>conc tested	1740 nM	< 15%	–	–	–	–	–	–
CS(=O)(=O)N1CCN(Cc2cc3nc(-c4cccc5[nH]ncc45)nc(N4CCOCC4)c3s2)CC1 [GDC-0941]	–	–	–	–	–	–	no better than survival of mice only treated with vehicle	–	–	–	–	–	–	–	–	–
C[C@@]1(C(=O)Nc2ccc(F)nc2)CCCN1c1nc(Nc2cc(C3CC3)n[nH]2)c2cccn2n1 [BMS-754807]	≥ 0.1 µM	–	–	–	–	–	–	–	97.4 nM	< 15%	1.063+/−0.1925 percentage of cell per high powered filed	9.632+/−2.827 percentage of cell per high powered filed	able to cross the blood brain barrier	well tolerated	1730 nM	90 nM
